Measured values published in patent US20210322520A1, “METHODS OF MODULATING CORTICOSTEROID RESPONSE” (priority 2019, published 2021).
Read-outs that look alike come from different tables or passages of the source. One block for each molecule: values may come before it.

Legend:
[1] = system: corticosterone levels in rats; assay: Corticosterone levels in rats after RCI or ACTH; format: in vivo, rat
Procedure: Studies were conducted to discover the differences between repository corticotropin injection (RCI) (i.e. Acthar® gel) and synthetic adrenal corticotropin compositions (referred to as ACTH herein) on corticosterone levels in rats.
RCI (10, 40, or 400 IU/kg) or ACTH (0.6, 1.2, or 2.4 mg/kg) was administered to Sprague Dawely rats, plasma samples collected and analyzed for corticosterone.
RCI and ACTH peak corticosterone and area under the curve (AUC) were evaluated.

[2] = Phase 1 plasma pharmacokinetics in healthy subjects; format: in vivo, human; conditions: for Cmax / half-life / AUC(0-t): plasma; for RAUC0-24 (accumulation ratio): AUC0-24 Day 4 / Day 1; for time of mean peak plasma concentration: after oral dosing
Procedure: Baseline demographics were collected during the screening period between study Day −28 and Day −3. Subjects remained at the clinic from 2 days before the first dose of study drug (Day-2) until study Day 8.
Serum samples for total cortisol and plasma samples for free cortisol, total methylprednisolone, free methylprednisolone, and ACTH1-24 were analyzed by Syneos Health (Quebec City, Quebec, Canada); plasma samples for N25D porcine ACTH1-39 were analyzed by QPS Netherlands BV (Groningen, Netherlands). Concentrations for all analytes were determined using liquid chromatography-tandem mass spectrometry methods that were validated according to the US FDA Bioanalytical Method Validation Guidance (May 2018). […]
The plasma total and free methylprednisolone were determined using a validated LC-MS/MS method developed by Syneos Health (Quebec City, Quebec, Canada). The LC-MS/MS methods for plasma total and free methylprednisolone were conducted using an Atmospheric Pressure Ionization (API) 5000 mass spectrometer (AB Sciex, Toronto, Canada) with positive electrospray ionization and multiple reaction monitoring (precursor/product ion m/z: 375/161 for methylprednisolone; 381/363 for methylprednisolone-d6, which was included as internal standard). Quantitative analysis was accomplished on an ACE Excel 2 C18-PFP (50×3.0 mm, 2 μm) column. The mobile phases were Milli-Q type water/methanol with ammonium formate and formic acid (in different proportions). The LC was run on isocratic mode followed by a column flush. The calibration range for plasma total methylprednisolone concentration was 0.500 to 500 ng/mL with LLOQ of 0.500 ng/mL. The inter- and intra-run-precision (relative SD) were ≤7%, and 8%, while the intra-run accuracy was 100% to 112%. The calibration range for plasma free cortisol concentration was 200 to […]. The inter- and intra-run-precision (relative SD) were ≤18.5% and 3%, respectively, while the intra-run accuracy was 94% to 101%.
All subjects whose PK profile contained at least 4 consecutive quantifiable concentrations were included in the PK population.
All subjects whose PK profile contained at least 4 consecutive quantifiable plasma concentrations of N25D porcine ACTH1-39, ACTH1-24, or total and free methylprednisolone were in the PK population.
PK parameters were estimated using actual blood collection times by noncompartmental methods using Phoenix® WinNonlin® 8.1. (Certara USA, Inc.). AUC0-24, AUC0-last, and AUC0-inf were calculated using the linear log trapezoidal rule. Kei was calculated using linear regression on the terminal slope of the ln-concentration versus time curve. At least 3 time points (excluding Cmax) and r^2≥0.90 were required to calculate and retain Kel and its associated parameters (t1/2 and AUC0-inf).

[3] = Cortisol-equivalent (steroidogenic) exposure of methylprednisolone; format: in vivo, human; conditions: for plasma free cortisol-equivalent AUEC24SG / plasma total cortisol-equivalent AUEC24SG: 32 mg oral daily, mean; for EmaxSG / AUEC24SG[BA]: mean (SD); for TmaxSG: median (min, max); for AUEC24SG[BA]: baseline-corrected
Procedure: Whole blood samples were drawn from each subject at predefined time points over 24 hours after oral methylprednisolone administration on study Day 1 and Day 4 for determination of plasma total and free methylprednisolone concentrations. All subjects who were in both the PK and PD populations were included in the cortisol-equivalent exposure population.
Because oral methylprednisolone is known to suppress endogenous cortisol production, PD parameters for serum total and plasma free cortisol after administration of methylprednisolone were not calculated. Instead, the cortisol-equivalent (steroidogenic) concentration (CSG) of methylprednisolone was estimated. […] Therefore, a conversion factor of 5 was applied to the methylprednisolone concentration (ConcMPD). The following equation was used to estimate the steroidogenic concentration of methylprednisolone (CSG):
CSG=(5×ConcMPo)+ConcCortisol
CSG was used to estimate the following PD parameters for the steroidogenic concentration of plasma total and free methylprednisolone: maximum observed effect for the steroidogenic concentration (CSG) concentration-time profile (EmaxSG), time of EmaxSG (TmaxSG), and area under the effect curve for the CSG concentration-time profile from time 0 to 24 hours (AUEC24SG). Baseline-corrected AUEC24SG (AUEC24SG[BA]) was calculated by subtracting the baseline (Day-1) cortisol concentrations from the time-matched Day 1 steroidogenic concentration.

[4] = Safety analyses (adverse events), phase 1 study; format: in vivo, human
Procedure: All subjects who received at least one dose of the study drug were in the safety population. Safety was assessed via adverse events (AEs), treatment-emergent AEs (TEAEs; events that occurred after the first dose of study drug and through study completion), serious TEAEs (TESAEs), physical examinations, vital signs, 12-lead electrocardiograms (ECGs), and clinical laboratory test findings collected throughout the study.

[5] = human, oral, 32 mg, plasma free methylprednisolone, Day 1, mean (SD)
[6] = human, oral, 32 mg, plasma free methylprednisolone, Day 4, mean (SD)
[7] = free cortisol (steroidogenic concentration), Day 1
[8] = free cortisol (steroidogenic concentration), Day 4
[9] = total cortisol (steroidogenic concentration), Day 1
[10] = total cortisol (steroidogenic concentration), Day 4

Molecule: ACTH
reduction of corticosterone AUC between ACTH doses ([1]; ACTH 0.6, 1.2, 2.4 mg/kg): no significant reduction | dose dependence of corticosterone peak ([1]; Sprague Dawely rats, plasma): not dose dependent | time of peak corticosterone ([1]; Sprague Dawely rats, plasma, RCI 10, 40, 400 IU/kg, ACTH 0.6, 1.2, 2.4 mg/kg): 8 to 24 h

mean exposure of plasma free methylprednisolone as share of plasma total methylprednisolone ([2]; both days (Day 1 and Day 4)): about 8% | AUC(0-inf) [2, 5]: 0.106 µg·h/mL | Tmax ([2]; human, oral, 32 mg, plasma total methylprednisolone, Day 1, median (min, max)): 2 h | Cmax [2, 5]: 0.0246 µg/mL | half-life [2, 5]: 1.9 h | AUC(0-t) ([2]; human, oral, 32 mg, plasma free methylprednisolone, Day 1, mean (SD), read-out: AUC0-last): 0.104 µg·h/mL | AUC(0-t) ([2]; human, oral, 32 mg, plasma free methylprednisolone, Day 1, n = 1, read-out: AUC0-24): 0.176 µg·h/mL | Cmax [2, 6]: 0.0219 µg/mL | half-life [2, 6]: 2 h | AUC(0-t) ([2]; human, oral, 32 mg, plasma free methylprednisolone, Day 4, mean (SD), read-out: AUC0-last): 0.0895 µg·h/mL | AUC(0-t) ([2]; human, oral, 32 mg, plasma free methylprednisolone, Day 4, n = 1, read-out: AUC0-24): 0.145 µg·h/mL | half-life ([2]; human, oral, 32 mg, plasma total methylprednisolone, Day 1, mean (SD)): 2.2 h | half-life ([2]; human, oral, 32 mg, plasma total methylprednisolone, Day 4, mean (SD)): 2.4 h | AUC(0-t) ([2]; human, oral, 32 mg, plasma total methylprednisolone, Day 4, mean (SD), read-out: AUC0-24): 1.11 µg·h/mL | AUC(0-t) ([2]; human, oral, 32 mg, plasma total methylprednisolone, Day 4, mean (SD), read-out: AUC0-last): 0.919 µg·h/mL | Cmax ([2]; human, po, 32 mg, plasma total methylprednisolone, 32 mg oral daily, Day 1, mean (SD)): 0.198 µg/mL | Cmax ([2]; human, po, 32 mg, plasma total methylprednisolone, 32 mg oral daily, Day 4, mean (SD)): 0.188 µg/mL | AUC(0-t) ([2]; human, po, 32 mg, plasma total methylprednisolone, Day 1, mean (SD), read-out: AUC0-24): 1.33 µg·h/mL | AUC(0-t) ([2]; human, po, 32 mg, plasma total methylprednisolone, Day 1, mean (SD), read-out: AUC0-last): 1.02 µg·h/mL | AUC(0-inf) ([2]; human, po, 32 mg, plasma total methylprednisolone, Day 1, mean (SD)): 1.03 µg·h/mL | RAUC0-24 (accumulation ratio) ([2]; plasma free methylprednisolone, n = 1): 0.8 (NA) | RAUC0-24 (accumulation ratio) ([2]; plasma free methylprednisolone, n = 1, listed as methylprednisolone): 0.8 | time of mean peak plasma concentration ([2]; plasma free methylprednisolone): 2 h | RAUC0-24 (accumulation ratio) ([2]; plasma total methylprednisolone, mean (SD)): 0.9 (0.1) | RAUC0-24 (accumulation ratio) ([2]; plasma total methylprednisolone, mean (SD), listed as methylprednisolone): 0.9 | time of mean peak plasma concentration ([2]; plasma total methylprednisolone): around 2 hours
Molecule: C[C@H]1C[C@@H]2[C@H]([C@@H](O)C[C@@]3(C)[C@H]2CC[C@]3(O)C(=O)CO)[C@@]2(C)C=CC(=O)C=C12 [Methylprednisolone, methylprednisolone]
plasma free cortisol-equivalent AUEC24SG ([3]; Day 1): 572.0 ng·h/mL | plasma total cortisol-equivalent AUEC24SG ([3]; Day 1): 6480.0 ng·h/mL | plasma free cortisol-equivalent AUEC24SG ([3]; Day 4): 492.0 ng·h/mL | plasma total cortisol-equivalent AUEC24SG ([3]; Day 4): 5440.0 ng·h/mL | EmaxSG [3, 7]: 124.0 (37.2) ng/mL | TmaxSG [3, 7]: 2.0 (1.0, 4.0) h | EmaxSG [3, 8]: 109.0 (26.7) ng/mL | TmaxSG [3, 8]: 2.0 (1.0, 4.0) h | AUEC24SG[BA] ([3]; free cortisol, Day 1): 553.0 (187.0) h*ng/mL | AUEC24SG[BA] ([3]; free cortisol, Day 4): 475.0 (140.0) h*ng/mL | EmaxSG [3, 9]: 1040.0 (251.0) ng/mL | TmaxSG [3, 9]: 2.0 (2.0, 4.0) h | EmaxSG [3, 10]: 959.0 (188.0) ng/mL | TmaxSG [3, 10]: 2.0 (1.0, 4.0) h | AUEC24SG[BA] ([3]; total cortisol, Day 1): 4860.0 (1680.0) h*ng/mL | AUEC24SG[BA] ([3]; total cortisol, Day 4): 4010.0 (1260.0) h*ng/mL | subjects experiencing TESAEs (in words) ([4]; TESAE of pulmonary embolism in the synthetic ACTH1-24 depot group): no subjects | AEs ([4]; n = 16 per group): 17 No. | Any TESAE ([4]; n = 16 per group): 0 No. (%) | Subjects with any TEAE ([4]; n = 16 per group): 10 (62.5) No. (%) | TEAE: Contusion ([4]; n = 16 per group): 1 (6.3) No. (%) | TEAE: Dysuria ([4]; n = 16 per group): 0 No. (%) | TEAE: Headache ([4]; n = 16 per group): 2 (12.6) No. (%) | TEAE: Heart palpitations ([4]; n = 16 per group): 2 (12.5) No. (%) | TEAE: Injection site reaction ([4]; n = 16 per group): 0 No. (%) | TEAE: Insomnia ([4]; n = 16 per group): 0 No. (%) | TEAE: Somnolence ([4]; n = 16 per group): 0 No. (%) | TESAE: Pulmonary embolism ([4]; n = 16 per group): 0 No. (%)
